# Experimental data taken from paper PMC7830900, “Cinnamoyl Sucrose Esters as Alpha Glucosidase Inhibitors for the Treatment of Diabetes” (Molecules, 2021).
# How the values were obtained:
# STZ-treated mice = system: STZ-treated mice; parameters: method as in earlier work; conditions: STZ-treated mice compared to control (starch only) mice; cited from earlier work
# [1] = biological target: T1, porcine pancreatic α-amylase (Sus scrofa, UniProt P00690); assay: In vitro α-amylase inhibition assay (starch/DNSA); format: biochemical; parameters: inhibition: dose or concentration left out as unconfirmed; conditions: for IC50: dose-response 0–25 µg/mL
# T1 sequence (P00690 16-511): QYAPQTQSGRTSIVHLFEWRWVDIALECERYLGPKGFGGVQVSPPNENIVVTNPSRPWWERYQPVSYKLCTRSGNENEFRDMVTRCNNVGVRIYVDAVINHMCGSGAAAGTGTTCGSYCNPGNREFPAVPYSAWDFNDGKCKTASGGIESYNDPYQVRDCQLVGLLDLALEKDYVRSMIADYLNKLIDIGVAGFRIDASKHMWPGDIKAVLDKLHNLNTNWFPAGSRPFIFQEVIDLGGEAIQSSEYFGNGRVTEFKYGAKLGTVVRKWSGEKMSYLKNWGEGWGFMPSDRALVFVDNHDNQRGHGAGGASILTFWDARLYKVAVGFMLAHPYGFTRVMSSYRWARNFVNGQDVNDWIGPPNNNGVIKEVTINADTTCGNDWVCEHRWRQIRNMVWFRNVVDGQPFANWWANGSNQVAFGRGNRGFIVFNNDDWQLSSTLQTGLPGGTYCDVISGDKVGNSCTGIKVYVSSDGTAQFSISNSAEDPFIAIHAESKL
# Protocol: α-amylase inhibition was tested using previously reported methods […] The tubes were then incubated at 37 °C for 10 min. Next, 450 µL of 0.5% starch solution was added and the tubes were incubated for a further 20 min at 37 °C. Finally, 500 µL of Dinitro Salicylic Acid (DNSA) reagent was added and the tubes were placed in a boiling water bath for 15 min. The absorbance of the tubes was recorded at 540 nm and the % inhibition calculated using the same formula as for α-glucosidase, % inhibition = ΔAbscontrol−ΔAbssample/ΔAbscontrol × 100
# All measurements were performed in triplicates and the values.
# yeast α-glucosidase = yeast α-glucosidase (Saccharomyces cerevisiae, UniProt P53341); assay: In vitro α-glucosidase inhibition assay (PNPG substrate); format: biochemical; parameters: inhibition: dose or concentration left out as unconfirmed; conditions: for IC50: dose-response 0–25 µg/mL
# Protocol: α-Glucosidase inhibition was tested according to previously reported methods with some modifications. […] Fifty microliters of yeast α-glucosidase enzyme solution (0.5 U/mL in phosphate buffer) was added to the wells. The plate was incubated at 37 °C for 15 min. Next, 25 µL of 2.5 mM PNPG (4-nitrophenyl α-D-glucopyranoside) substrate solution (in phosphate buffer) was added. The microplate was incubated at 37 °C for another 15 min. The absorbance was then measured using a microplate reader at 405 nm. The percentage inhibition was calculated using the formula: % inhibition = ΔAbscontrol−ΔAbssample/ΔAbscontrol × 100
# All measurements were performed in triplicates and the values. The IC50 values for selected CSEs were calculated by plotting a dose-response curve for a range of concentrations of the CSEs (0–25 µg/mL) for the selected CSEs (data not shown) and regression analysis was done using Graphpad Prism software using the in-built function.
# [2] = 25 μg/mL, mean ± SD, n = 3, less than 5% inhibition = No Significant Activity
# Chain of yeast α-glucosidase (P53341 whole entry): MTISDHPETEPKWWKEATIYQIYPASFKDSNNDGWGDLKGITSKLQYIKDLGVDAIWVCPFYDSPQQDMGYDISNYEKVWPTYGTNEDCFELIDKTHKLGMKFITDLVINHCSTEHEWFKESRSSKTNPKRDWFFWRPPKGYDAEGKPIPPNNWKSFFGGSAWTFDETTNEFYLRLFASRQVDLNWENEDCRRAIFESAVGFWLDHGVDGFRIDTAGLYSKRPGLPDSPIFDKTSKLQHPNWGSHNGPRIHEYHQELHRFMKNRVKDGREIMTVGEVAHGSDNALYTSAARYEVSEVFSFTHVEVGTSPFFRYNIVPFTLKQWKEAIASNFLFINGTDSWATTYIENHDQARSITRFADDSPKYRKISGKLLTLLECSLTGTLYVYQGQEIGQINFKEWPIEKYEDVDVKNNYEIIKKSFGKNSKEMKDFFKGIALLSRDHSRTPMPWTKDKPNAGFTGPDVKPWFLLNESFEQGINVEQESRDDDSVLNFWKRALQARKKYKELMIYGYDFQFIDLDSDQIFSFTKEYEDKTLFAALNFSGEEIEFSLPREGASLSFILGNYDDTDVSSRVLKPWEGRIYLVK
smiles,measurement,setting,value
COc1cc(/C=C/C(=O)OC[C@H]2O[C@@](CO)(O[C@H]3O[C@H](CO)[C@@H](O)[C@H](OC(=O)/C=C/c4ccc(O)c(OC)c4)[C@H]3O)[C@@H](OC(=O)/C=C/c3ccc(O)c(OC)c3)[C@@H]2OC(=O)/C=C/c2ccc(O)c(OC)c2)ccc1O [FSE 1],blood glucose excursion,STZ-treated mice,significantly reduced blood glucose excursion
CC1(C)OCC2OC3OC4(COC(C)(C)OC3C(OC(=O)C=Cc3ccccc3)C2O1)OC(COC(=O)C=Cc1ccccc1)C(OC(=O)C=Cc1ccccc1)C4OC(=O)C=Cc1ccccc1 (stereo not shown) [CSE 5],inhibition,[1],98 ± 2%
same,"α-amylase IC50, fold less than acarbose",[1],five-fold less
same,IC50,"[1]; mean ± SD, n = 3",1 ± 0.2 µM
same,inhibition,yeast α-glucosidase,77 ± 5%
same,"α-glucosidase IC50, fold lower than acarbose",yeast α-glucosidase,over 36 fold
same,IC50,"yeast α-glucosidase; mean ± SD, n = 3",9 ± 3 µM
O=C(/C=C/c1ccccc1)OC[C@H]1O[C@@](CO)(O[C@H]2O[C@H](CO)[C@@H](O)[C@H](O)[C@H]2O)[C@@H](OC(=O)/C=C/c2ccccc2)[C@@H]1OC(=O)/C=C/c1ccccc1 [CSE 8],inhibition,[1],16 ± 2%
same,inhibition,yeast α-glucosidase,34 ± 4%
same,% α-glucosidase inhibition relative to % α-amylase inhibition,"yeast α-glucosidase; 25 μg/mL, selectivity α-glucosidase over α-amylase",higher inhibition of α-glucosidase than α-amylase
CC(=O)O[C@@H]1[C@H]2OC(C)(C)OC[C@@]3(O[C@H]2O[C@@H]2COC(C)(C)O[C@@H]12)O[C@H](COC(=O)/C=C/c1ccccc1)[C@@H](OC(C)=O)[C@@H]3OC(=O)/C=C/c1ccccc1 [CSE 6],inhibition,[1],14 ± 4%
same,inhibition,yeast α-glucosidase,46 ± 3%
CC(=O)O[C@@H]1[C@H]2OC(C)(C)OC[C@@]3(O[C@H]2O[C@@H]2COC(C)(C)O[C@@H]12)O[C@H](COC(=O)/C=C/c1ccccc1)[C@@H](OC(=O)/C=C/c1ccccc1)[C@@H]3OC(=O)/C=C/c1ccccc1 [CSE 7],inhibition,[1],13 ± 7%
same,inhibition,yeast α-glucosidase,46 ± 2%
"C[C@H]1O[C@H](O[C@H]2[C@H](O)[C@@H](O)[C@@H](O[C@H]3[C@H](O)[C@@H](O)C(O)O[C@@H]3CO)O[C@@H]2CO)[C@H](O)[C@@H](O)[C@@H]1N[C@H]1C=C(CO)[C@@H](O)[C@H](O)[C@H]1O (stereo partly shown) [acarbose, reference compound]",inhibition at 25 µg/mL,[1]; read-out: % α-amylase inhibition,93 ± 2%
same,inhibition,yeast α-glucosidase,27 ± 4%
O=C(C=Cc1ccccc1)OCC1OC(CO)(OC2OC(CO)C(O)C(OC(=O)C=Cc3ccccc3)C2O)C(OC(=O)C=Cc2ccccc2)C1OC(=O)C=Cc1ccccc1 (stereo not shown) [CSE 9],inhibition,[1],99 ± 1%
same,"α-amylase IC50, fold less than acarbose",[1],five-fold less
same,IC50,"[1]; mean ± SD, n = 3",0.8 ± 0.1 µM
same,inhibition,yeast α-glucosidase,74 ± 9%
same,"α-glucosidase IC50, fold lower than acarbose",yeast α-glucosidase,over 36 fold
same,IC50,"yeast α-glucosidase; mean ± SD, n = 3",9 ± 3 µM
CC1(C)OC[C@@]2(O[C@H]3O[C@@H]4COC(C)(C)O[C@H]4[C@H](O)[C@H]3O1)O[C@H](COC(=O)/C=C/c1ccccc1)[C@@H](OC(=O)/C=C/c1ccccc1)[C@@H]2OC(=O)/C=C/c1ccccc1 [CSE 4],inhibition,[1],8 ± 4%
same,inhibition,yeast α-glucosidase,32 ± 3%
CC1(C)OC[C@@]2(O[C@H]3O[C@@H]4COC(C)(C)O[C@H]4[C@H](O)[C@H]3O1)O[C@H](COC(=O)/C=C/c1ccccc1)[C@@H](O)[C@@H]2OC(=O)/C=C/c1ccccc1 [CSE 3],inhibition,[1],9 ± 5%
same,inhibition,yeast α-glucosidase,35 ± 5%
CC1(C)OC[C@@]2(O[C@H]3O[C@@H]4COC(C)(C)O[C@H]4[C@H](O)[C@H]3O1)O[C@H](COC(=O)/C=C/c1ccccc1)[C@@H](O)[C@@H]2O [CSE 2],% α-amylase inhibition,[1]; [2],did not show significant inhibition activity
same,% α-glucosidase inhibition,yeast α-glucosidase; [2],did not show significant inhibition activity
